Assay results from patent US11825838B2, “Tricyclic carboxamides for controlling arthropods” (Bayer CropScience Aktiengesellschaft, priority 2017, dated 2023).

Legend:
Format in all cases: in vivo
Rhipicephalus sanguineus = Rhipicephalus sanguineus in vitro contact test with adult brown dog ticks; conditions: application rate 5 μg/cm^2 (=500 g/ha), after 48 h, adult dog ticks dead or moribund
Experimental: Rhipicephalus sanguineus—In Vitro Contact Tests with Adult Brown Dog Ticks
(§1) For the coating of the test tubes, 9 mg of active ingredient are first dissolved in 1 ml of acetone p.a. and then diluted to the desired concentration with acetone p.a. 250 μl of the solution are distributed homogeneously on the inner walls and the base of a 25 ml glass tube by turning and rocking on an orbital shaker (rocking rotation at 30 rpm for 2 h). With 900 ppm of active ingredient solution and internal surface area 44.7 cm^2, given homogeneous distribution, an area-based dose of 5 μg/cm^2 is achieved.
After the solvent has evaporated off, the tubes are populated with 5-10 adult dog ticks (Rhipicephalus sanguineus), sealed with a perforated plastic lid and incubated in a horizontal position in the dark at room temperature and ambient humidity. After 48 h, efficacy is determined. To this end, the ticks are knocked to the base of the tube and incubated on a hotplate at 45-50° C. for not more than 5 min. Ticks which remain motionless on the base or move in such an uncoordinated manner that they are unable to deliberately avoid the heat by climbing upwards are considered to be dead or moribund.
An efficacy of 100% means that all the ticks were dead or moribund. 0% efficacy means that none of the ticks were harmed.

Boophilus microplus = Boophilus microplus injection test; conditions: application rate 20 μg/animal, assessed after 7 days by laying of fertile eggs
Experimental: Boophilus microplus—Injection Test
(§2) Solvent: dimethyl sulfoxide
To produce a suitable active compound preparation, 10 mg of active compound are mixed with 0.5 ml of solvent and the concentrate is diluted to the desired concentration with solvent.
1 μl of the active ingredient solution is injected into the abdomen of 5 engorged adult female cattle ticks (Boophilus microplus). The animals are transferred into dishes and kept in a climate-controlled room.
Efficacy is assessed after 7 days by laying of fertile eggs. Eggs which are not visibly fertile are stored in a climate-controlled cabinet until the larvae hatch after about 42 days. An efficacy of 100% means that none of the ticks has laid any fertile eggs; 0% means that all the eggs are fertile.

Ctenocephalides felis [1] = test: Ctenocephalides felis oral test; conditions: application rate 100 ppm in citrated cattle blood, after 2 days
Experimental: Ctenocephalides felis—Oral Test
as §2
To produce a suitable active ingredient formulation, 10 mg of active ingredient are mixed with 0.5 ml of dimethyl sulfoxide. Dilution with citrated cattle blood gives the desired concentration.
About 20 unfed adult cat fleas (Ctenocephalides felis) are placed into a chamber which is closed at the top and bottom with gauze. A metal cylinder whose bottom end is closed with parafilm is placed onto the chamber. The cylinder contains the blood/active ingredient formulation, which can be imbibed by the fleas through the parafilm membrane.
After 2 days, the rate of extermination in % is determined. 100% means that all of the fleas have been killed; 0% means that none of the fleas have been killed.

Lucilia cuprina = Lucilia cuprina test; conditions: application rate 100 ppm, L1 larvae, after 2 days
Experimental: as §2
(§3) To produce a suitable active ingredient formulation, 10 mg of active ingredient are mixed with 0.5 ml of dimethyl sulfoxide, and the concentrate is diluted with water to the desired concentration.
About 20 L1 larvae of the Australian sheep blowfly (Lucilia cuprina) are transferred into a test vessel containing minced horsemeat and the active compound preparation of the desired concentration.
After 2 days, the rate of extermination in % is determined. 100% means that all the larvae have been killed; 0% means that no larvae have been killed.

Phaedon cochleariae = Phaedon cochleariae spray test (PHAECO); conditions: application rate 100 g/ha, spray, after 7 days; for pest or weed control at 100 g/ha: Phaedon cochleariae, 168 h, read-out: efficacy
Experimental: Phaedon cochleariae—Spray Test
(§4) To produce a suitable active ingredient formulation, 1 part by weight of active ingredient is dissolved with the specified parts by weight of solvent and made up to the desired concentration with water containing an emulsifier concentration of 1000 ppm. To produce further test concentrations, the formulation is diluted with emulsifier-containing water.
After 7 days, the efficacy in % is determined. 100% means that all the beetle larvae have been killed; 0% means that no beetle larvae have been killed.
Phaedon cochleariae—Spray Test (PHAECO)
as §4, with “compound” for “ingredient”
Discs of Chinese cabbage leaves (Brassica pekinensis) are sprayed with an active compound formulation of the desired concentration and, after drying, populated with larvae of the mustard beetle (Phaedon cochleariae).
After the desired time, the efficacy in % is determined. 100% means that all the beetle larvae have been killed; 0% means that no beetle larvae have been killed.

Spodoptera frugiperda = Spodoptera frugiperda spray test (SPODFR); conditions: application rate 100 g/ha, spray, after 7 days; for pest or weed control at 100 g/ha: Spodoptera frugiperda, 168 h, read-out: efficacy
Experimental: Spodoptera frugiperda—Spray Test
as §4
Leaf discs of maize (Zea mays) are sprayed with an active ingredient formulation of the desired concentration and, after drying, populated with caterpillars of the armyworm (Spodoptera frugiperda).
After 7 days, the efficacy in % is determined. 100% means that all the caterpillars have been killed; 0% means that no caterpillar has been killed.
Spodoptera frugiperda—Spray Test (SPODFR)
as §4, with “compound” for “ingredient”
Leaf discs of maize (Zea mays) are sprayed with an active compound formulation of the desired concentration and, after drying, populated with caterpillars of the armyworm (Spodoptera frugiperda).
After the desired time, the efficacy in % is determined. 100% means that all the caterpillars have been killed; 0% means that no caterpillar has been killed.

[2] = test system: Anopheles gambiae strain RSPH (homozygot kdr); test: Anopheles test (ANPHGB surface treatment); conditions: application rate 100 mg/m^2, glazed tile, exposure 30 minutes, 24 hours after contact, read-out: efficacy (mortality)
Experimental: Anopheles Test (ANPHGB Surface Treatment)
(§5) Solvent: acetone+2000 ppm rapeseed oil methyl ester (RME)
(§6) To produce a suitable active compound formulation, the active compound is dissolved in the solvent (2 mg/ml). The active compound formulation is pipetted onto a glazed tile and, after it has dried off, adult mosquitoes of the species Anopheles gambiae strain RSPH (homozygot kdr) are placed onto the treated tile. The exposure time is 30 minutes.
(§7) 24 hours after contact with the treated surface, mortality in % is determined. 100% means that all mosquitoes have been killed; 0% means that none of the mosquitoes have been killed.

[3] = test system: Anopheles funestus strain FUMOZ-R; test: Anopheles test (ANPHFU surface treatment); conditions: application rate 100 mg/m^2, glazed tile, exposure 30 minutes, 24 hours after contact, read-out: efficacy (mortality)
Experimental: Anopheles Test (ANPHFU Surface Treatment)
as §5
as §6, with “funestus” for “gambiae”, “FUMOZ-R (Hunt et al., Med Vet Entomol. 2005 September; 19(3):271-5)” for “RSPH (homozygot kdr)”
as §7

[4] = test system: Aedes aegypti strain MONHEIM; test: Aedes test (AEDSAE surface treatment); conditions: application rate 100 mg/m^2, glazed tile, exposure 30 minutes, 24 hours after contact, read-out: efficacy (mortality)
Experimental: Aedes Test (AEDSAE Surface Treatment)
as §5
as §6, with “Aedes aegypti” for “Anopheles gambiae”, “MONHEIM” for “RSPH (homozygot kdr)”
as §7

Musca domestica = Musca domestica test; conditions: application rate 100 ppm, adult houseflies, after 2 days
Experimental: as §2, §3
Vessels containing a sponge treated with sugar solution and the active ingredient formulation of the desired concentration are populated with 10 adult houseflies (Musca domestica).
After 2 days, the rate of extermination in % is determined. 100% means that all of the flies have been killed; 0% means that none of the flies have been killed.

Myzus persicae [5] = test: Myzus persicae oral test; conditions: application rate 4 ppm, after 5 days
Experimental: To produce a suitable active compound preparation, 1 part by weight of active compound is dissolved with the specified amounts by weight of solvent and made up to the desired concentration with water.
50 ul of the active compound preparation are transferred to microtiter plates and made up to a final volume of 200 μl with 150 μl of IPL41 insect medium (33%+15% sugar). Then the plates are sealed with parafilm through which a mixed population of the green peach aphid (Myzus persicae), which is located in a second microtiter plate, can pierce and absorb the solution.
(§8) After 5 days, the efficacy in % is determined. 100% means that all the aphids have been killed; 0% means that no aphids have been killed.

Tetranychus urticae = Tetranychus urticae spray test, OP-resistant (TETRUR); conditions: spray, after 6 days
Experimental: Tetranychus urticae—Spray Test, OP-Resistant
as §4
Discs of bean leaves (Phaseolus vulgaris) infested with all stages of the greenhouse red spider mite (Tetranychus urticae) are sprayed with an active compound preparation of the desired concentration.
After 6 days, the efficacy in % is determined. 100% means that all the spider mites have been killed; 0% means that no spider mites have been killed.
Tetranychus urticae—Spray Test; OP-Resistant (TETRUR)
as §4, with “compound” for “ingredient”
Discs of bean leaves (Phaseolus vulgaris) infested with all stages of the greenhouse red spider mite (Tetranychus urticae) are sprayed with an active compound formulation of the desired concentration.
After the desired time, the efficacy in % is determined. 100% means that all the spider mites have been killed; 0% means that no spider mites have been killed.

Ctenocephalides felis [6] = test: Ctenocephalides felis in vitro contact test with adult cat fleas; conditions: application rate 5 μg/cm^2 (=500 g/ha), after 48 h, adult cat fleas dead or moribund
Experimental: Ctenocephalides felis—In Vitro Contact Tests with Adult Cat Fleas
as §1
After the solvent has evaporated off, the tubes are populated with 5-10 adult cat fleas (Ctenocephalides felis), sealed with a perforated plastic lid and incubated in a horizontal position at room temperature and ambient humidity. After 48 h, efficacy is determined. To this end, the tubes are stood upright and the fleas are knocked to the base of the tube. Fleas which remain motionless at the base or move in an uncoordinated manner are considered to be dead or moribund.
100% efficacy means that all the fleas were dead or moribund. 0% efficacy means that no fleas were harmed.

Myzus persicae [7] = test: Myzus persicae spray test (MYZUPE); conditions: application rate 100 g/ha, spray, after 5 days
Experimental: Myzus persicae—Spray Test
as §4
Discs of Chinese cabbage leaves (Brassica pekinensis) infested by all stages of the green peach aphid (Myzus persicae) are sprayed with an active compound preparation of the desired concentration.
as §8
Myzus Persicae—Spray Test (MYZUPE)
as §4, with “compound” for “ingredient”
Discs of Chinese cabbage leaves (Brassica pekinensis) infested with all stages of the green peach aphid (Myzus persicae) are sprayed with an active compound formulation of the desired concentration.
After the desired time, the efficacy in % is determined. 100% means that all the aphids have been killed; 0% means that no aphids have been killed.

Cn1cc(-c2cnn(-c3c(Cl)cc(C(F)(C(F)(F)F)C(F)(F)F)cc3Cl)c2)cc1C(=O)NC1CC1 [I-T1-3, N-cyclopropyl-4-{1-[2,6-dichloro-4-(1,1,1,2,3,3,3-heptafluoropropan-2-yl)phenyl]-1H-pyrazol-4-yl}-1-methyl-1H-pyrrole-2-carboxamide]
efficacy (Rhipicephalus sanguineus): 100%
efficacy (Boophilus microplus): 100%
efficacy (rate of extermination) (Ctenocephalides felis [1]): 100%
efficacy (rate of extermination) (Lucilia cuprina): 100%
pest or weed control at 100 g/ha (Phaedon cochleariae): 100%
pest or weed control at 100 g/ha (Spodoptera frugiperda): 100%
mortality at 100 mg/m2 [2]: 80 to 100%

Cn1c(C(=O)NC2CC2)cc(-c2cnn(-c3c(Cl)cc(C(F)(C(F)(F)F)C(F)(F)F)cc3Cl)c2)c1Cl [I-T1-9, 5-chloro-N-cyclopropyl-4-{1-[2,6-dichloro-4-(1,1,1,2,3,3,3-heptafluoropropan-2-yl)phenyl]-1H-pyrazol-4-yl}-1-methyl-1H-pyrrole-2-carboxamide]
pest or weed control at 100 g/ha (Phaedon cochleariae): 100%
pest or weed control at 100 g/ha (Spodoptera frugiperda): 100%
mortality at 100 mg/m2 [2]: 80 to 100%
mortality at 100 mg/m2 [3]: 80 to 100%
mortality at 100 mg/m2 [4]: 80 to 100%

Cc1sc(-c2cnn(-c3c(Cl)cc(C(F)(C(F)(F)F)C(F)(F)F)cc3Cl)c2)cc1C(=O)NC1(C#N)CC1 [I-T1-10]
efficacy (Boophilus microplus): 100%
efficacy (rate of extermination) (Ctenocephalides felis [1]): 100%
efficacy (rate of extermination) (Lucilia cuprina): 100%
efficacy (rate of extermination) (Musca domestica): 100%
efficacy (Myzus persicae [5]): 100%
efficacy (Phaedon cochleariae): 100%
efficacy (Spodoptera frugiperda): 100%
efficacy (Tetranychus urticae; application rate 20 g/ha): 100%
efficacy (Tetranychus urticae; application rate 100 g/ha): 100%

O=C(NC1CC1)c1csc(-c2cnn(-c3c(Cl)cc(C(F)(C(F)(F)F)C(F)(F)F)cc3Cl)c2)c1 [I-T1-12, N-cyclopropyl-5-{1-[2,6-dichloro-4-(1,1,1,2,3,3,3-heptafluoropropan-2-yl)phenyl]-1H-pyrazol-4-yl}thiophene-3-carboxamide]
efficacy (Ctenocephalides felis [6]): 100%
efficacy (Rhipicephalus sanguineus): 100%
efficacy (rate of extermination) (Ctenocephalides felis [1]): 100%
efficacy (rate of extermination) (Lucilia cuprina): 100%
efficacy (rate of extermination) (Musca domestica): 100%
efficacy (Myzus persicae [5]): 100%
pest or weed control at 100 g/ha (Phaedon cochleariae): 100%
pest or weed control at 100 g/ha (Spodoptera frugiperda): 100%

N#CC1(NC(=O)c2csc(-c3cnn(-c4c(Cl)cc(C(F)(C(F)(F)F)C(F)(F)F)cc4Cl)c3)c2)CC1 [I-T1-13, N-(1-cyanocyclopropyl)-5-{1-[2,6-dichloro-4-(1,1,1,2,3,3,3-heptafluoropropan-2-yl)phenyl]-1H-pyrazol-4-yl}thiophene-3-carboxamide]
efficacy (Boophilus microplus): 100%
efficacy (rate of extermination) (Ctenocephalides felis [1]): 100%
efficacy (rate of extermination) (Lucilia cuprina): 100%
efficacy (rate of extermination) (Musca domestica): 100%
pest or weed control at 100 g/ha (Phaedon cochleariae): 100%
pest or weed control at 100 g/ha (Spodoptera frugiperda): 100%
efficacy (Tetranychus urticae; application rate 20 g/ha): 90%
efficacy (Tetranychus urticae; application rate 100 g/ha): 100%
mortality at 100 mg/m2 [4]: 80 to 100%

O=C(NC1CC1)c1cc(-c2cnn(-c3c(Cl)cc(C(F)(C(F)(F)F)C(F)(F)F)cc3Cl)c2)sc1Cl [I-T1-16, 2-chloro-N-cyclopropyl-5-{1-[2,6-dichloro-4-(1,1,1,2,3,3,3-heptafluoropropan-2-yl)phenyl]-1H-pyrazol-4-yl}thiophene-3-carboxamide]
efficacy (Myzus persicae [5]): 100%
efficacy (Myzus persicae [7]): 100%
pest or weed control at 100 g/ha (Phaedon cochleariae): 100%
pest or weed control at 100 g/ha (Spodoptera frugiperda): 100%
efficacy (Tetranychus urticae; application rate 20 g/ha): 90%
efficacy (Tetranychus urticae; application rate 100 g/ha): 100%
